In US9789102B2, “H3 receptor antagonist for use in the treatment of alzheimer's disease” (SANOFI, priority 2012, dated 2017):

Assays:
[1] = tested on: tau phosphorylation on AD2 epitope (pSer396-pSer404); assay: Western blot of tau phosphorylation on AD-2 epitope after six months in food (Example 3); format: in vivo, THY-Tau22 mice; settings: 0.0034% in food
Source text: 2-(Cyclohexylmethyl)-N-{2-[(2S)-1-methylpyrrolidin-2-yl]ethyl}-1,2,3,4-tetrahydroisoquinoline-7-sulfonamide difumarate monohydrate was administrated as a supplement in food at doses of 0.00034%, 0.0034% and 0.034% for six months in THY-Tau22 and wild type mice as follows: • Tg Veh (n=17) • Tg Active Ingredient—0.034% (n=17) • Tg Active Ingredient—0.0034% (n=17) • Tg Active Ingredient—0.00034% (n=17) • WT Veh (n=17) • WT Active Ingredient—0.034% (n=17) • WT Active Ingredient—0.0034% (n=17) • WT Active Ingredient—0.00034% (n=17) • WT groups treated with Active Ingredient are not used in the biochemical and histological studies.
(§1) For immunoblot analysis, frozen mouse tissues (either hippocampus or cortex) were homogenized using a Precellys 24 tissue homogenizer in 350 μl RIPA buffer from Cell Signaling (20 mM Tris-HCl (pH 7.5), 150 mM NaCl, 1 mM Na2 EDTA, 1 mM EGTA, 1% NP-40, 1% sodium deoxycholate, 2.5 mM sodium pyrophosphate, 1 mM beta-glycerophosphate, 1 mM Na3VO4, 1 μg/ml leupeptin) to which proteases inhibitors (Sigma cocktail 1% v/v) and phosphatases inhibitors (okadaic acid 1 μM, sodium fluoride 100 mM) were added. After centrifugation, 16000×g 4° C. for 10 minutes, protein content in supernatants was determined with BioRad DC Protein Assay kit, using BSA as a standard. Equal amounts of protein (5 μg) were loaded on 15-well 4-12% Bis-Tris gels (NuPAGE, Invitrogen) and electrophoresis was performed at 200V for 50 minutes in MOPS buffer according to the manufacturer's instructions. […] Tau protein was detected using the following mouse antibody: AD-2 1/20.000^e (Biorad, 56484) which recognizes tau protein phosphorylated on Ser396 and Ser404. […]
(§2) Following incubation with primary antibodies, blots were rinsed in TBS Tween 0.1% and incubated for 1 hour at room temperature in an anti-mouse IgG horseradish peroxidase (HRP)-linked secondary antibody 1/10,000^e (GE healthcare, NA9310) diluted in 5% non-fat dry milk in TBS Tween 0.1%. […] Quantification of immunoreactive signal was performed using Multigauge V3.0 software (FUJIFILM). […]

[2] = tested on: tau phosphorylation at the AT-8 epitope; assay: Western blot analysis of tau phosphorylation at AT-8 epitope after six months in food; format: in vivo, THY-Tau22 mice; settings: 0.0034% in food, trend only, ns
[3] = tested on: protein tau phosphorylation at AD-2 epitope; assay: Western blot of tau phosphorylation at AD-2 epitope after single administration (Example 1); format: in vivo; settings: THY-Tau22 mice
Description: as §1, with “standard.” for “standard. Equal amounts of protein (5 μg) were loaded on 15-well 4-12% Bis-Tris gels (NuPAGE, Invitrogen) and electrophoresis was performed at 200V for 50 minutes in MOPS buffer according to the manufacturer's instructions.”
as §2

[4] = Comparison of exposures in mice (6 months in food) with those expected at steady state in AD patients; format: in vivo
[5] = tested on: THY-Tau22 transgenic mice; assay: Cognitive deficits after 6 months of treatment; format: in vivo; settings: clinically relevant doses

For CN1CCC[C@H]1CCNS(=O)(=O)c1ccc2c(c1)CN(CC1CCCCC1)CC2 [2-(cyclohexylmethyl)-N-{2-[(2S)-1-methylpyrrolidin-2-yl]ethyl}-1,2,3,4-tetrahydroisoquinoline-7-sulfonamide difumarate monohydrate], the “protein tau phosphorylation on AD-2 epitope in hippocampus, vs vehicle” value ([1]; THY-Tau22 mice) was “statistical significant decrease”, the “inhibition of tau phosphorylation at the AD-2 epitope, cortex” value ([1]; Western blot, non-significant, p=0.1807) was −57% and the “inhibition of tau phosphorylation at the AD-2 epitope, hippocampus” value ([1]; Western blot, p=0.0229 vs vehicle) was −37%. The “inhibition of tau phosphorylation at the AT-8 epitope, hippocampus” value [2] was −22%, the “effect on protein tau phosphorylation at AD-2 epitope in the cortex” value ([3]; 3 mg/kg per os) was “did not elicit any effect” and the “effect on protein tau phosphorylation at AD-2 epitope in the cortex” value ([3]; 10 mg/kg per os) was “did not elicit any effect”. For the same compound, the “corresponding human dose (safe for patients) by comparison of exposures” value ([4]; 0.00034% in food of mice) was “about 0.25 mg”, the “corresponding human dose (safe for patients) by comparison of exposures” value ([4]; 0.0034% in food of mice) was “about 2.5 mg” and the cognitive deficits [5] was “decreases cognitive deficits”.
